Columns and labels:
[1] = system: c-Myc, AKT, ERK1/2 in LNCaP tumor xenografts; test: Western blot of c-Myc and signaling proteins in LNCaP-xenografted tumors (FIG. 14); assay type: in vivo, mouse; settings: LNCaP xenograft; HS1002 1 mg/kg/day, LA 0.1 mg/kg/day s.c.
Procedure: The cells and tumor tissues were homogenized using the PRO-PREP™ extraction solution (iNtRON Biotechnology, Seongnam, Korea). After incubation, the homogenate was centrifuged at 16,000×g for 20 min at 4° C., and the supernatant was collected for western blot analysis. Subsequently, an equivalent quantity of protein was separated using sodium dodecyl sulfate polyacrylamide gels and transferred onto a polyvinylidene difluoride (PVDF) membrane. The PVDF membranes were incubated with the primary antibodies overnight at 4° C., washed with tris-buffered saline, and then incubated with HRP-conjugated anti-mouse or anti-rabbit antibodies. The bands were visualized using a ChemiDoc imaging system (Bio-Rad, Hercules, CA, USA). The band intensities were determined using an Image J software.
All mice were purchased from Central Lab Animal Inc. ([…]). They were raised in a 12 h environmental light/dark cycle with controlled temperature (22±2° C.) conditions. The experimental protocol was approved by the Sungkyunkwan University Institutional Animal Care and Use Committee (SKKUIACUC2021-06-27-1, SKKUIACUC2023-01-07-1). For the establishment of tumors, LNCaP (1×10^7), MC38 (2×10^5), and 4T1 (1×10^6) suspended in serum-free media containing 50% Matrigel was subcutaneously administered in the right flank of mice, respectively. The tumor volumes (V) were calculated using a caliper and the standard equation: V (mm^3)=0.52 (ab^2) (a=length, b=width). Once the tumor reached 100-200 mm^3, the mice were randomly divided into different groups and subcutaneously injected with a vehicle or each peptide every day.
To investigate the anticancer effect of HS1002, the present inventors observed the volume of cancer cells after transplanting the cancer cells into experimental animals. Specifically, mice (4-week-old male BALB/c nude mice; Central Lab. Animal Inc., Seoul, Korea) were prepared, and tumor cells (1×10^7 LNCaP cells) suspended in 1 mL of a serum-free medium containing 50% Matrigel were percutaneously injected into the upper flank of each nude mouse. When the tumor cell volume reached about 200 mm^3, the mice were randomly assigned to a vehicle control group, a leuprolide acetate-treated group, and test groups (GV1001-treated group and HS1002-treated group), respectively. Leuprolide acetate (0.1 mg/kg/day) and GV1001 and HS1002 (1 mg/kg/day) were injected subcutaneously for 13 days.

HEK293-GnRHR cells [2] = molecular target: T1, HEK293-GnRHR cells (Homo sapiens, UniProt P30968); test: Intracellular calcium flux assay; assay type: cell-based; settings: 100 nM
T1 construct: GFP; expressed in transfected cells
T1 sequence (P30968 1-328): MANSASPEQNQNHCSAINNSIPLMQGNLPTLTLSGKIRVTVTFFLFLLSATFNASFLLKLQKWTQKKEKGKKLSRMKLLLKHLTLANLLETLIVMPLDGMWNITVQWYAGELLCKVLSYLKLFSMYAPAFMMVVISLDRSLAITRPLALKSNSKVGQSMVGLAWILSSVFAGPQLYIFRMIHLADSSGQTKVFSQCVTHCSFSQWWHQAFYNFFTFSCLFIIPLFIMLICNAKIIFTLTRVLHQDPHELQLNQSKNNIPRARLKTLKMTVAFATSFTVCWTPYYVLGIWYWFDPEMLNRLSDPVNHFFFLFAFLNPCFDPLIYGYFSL
Procedure: (§1) Human embryonic kidney cell line (HEK293), and mouse cancer cell lines (MC38, 4T1) were purchased from the American Type Culture Collection (Manassas, VA, USA). All cell lines were grown in Dulbecco's Modified Essential Medium (DMEM) or Roswell Park Memorial Institute (RPMI) 1640 supplemented with 10% FBS, 100 U/mL penicillin, and 100 μg/mL streptomycin (WelGENE, Daegu, South Korea) in a humidified atmosphere of 5% CO2 at 37° C. To obtain GnRHR-overexpressing HEK293 (HEK293-GnRHR) cells, transfection of the pCMV-AC-GFP-GnRHR vector (HEK293-GnRHR) was performed using Lipofectamine™ 3000 according to the manufacturer's instructions (Cat. 100022052, Thermo Fisher Scientific, Waltham, MA, USA). Colonies of geneticin-resistant cells were selected by adding G418 (800 μg/mL, Sigma) to the culture medium. The HEK293-pCMV-AC-GFP vector (HEK293-Vector) cells were used as a mock-transfection group.
Intracellular calcium mobilization was measured using the Calcium Flux Assay Kit (Cat. ab233472, abcam) in response to different concentrations of each peptide. The percentage increase was calculated relative to basal fluorescence intensity. The experiment was performed in triplicate.

HEK293-GnRHR cells [3] = molecular target: T1, HEK293-GnRHR cells; test: CRE-luciferase reporter assay; assay type: cell-based; settings: 100 nM, 24 h
Procedure: as §1
The HEK293-pCMV6-AC-GFP and HEK293-GnRHR cells (4×10^4 cells/well) were grown in 96-well plates and co-transfected with a luciferase reporter plasmid containing a cAMP response element (CRE) using Lipofectamine 3000 (Life Technologies). The transfected cells were exposed to different concentrations of peptide for 24 h, and the promoter activity was measured by a dual-luciferase reporter assay system (BPS Bioscience). The firefly and Renilla luciferase activities were measured using a microplate luminometer (Thermo, Varioskan LUX Multimode Microplate Reader). The calculation of relative luciferase activities involved the normalization of the firefly luciferase activity […].

HEK293-Vector cells = test: CRE-luciferase reporter assay, mock-transfected cells; assay type: cell-based, human
Procedure: as §1, with “group. […] The transfected cells were exposed to different concentrations of peptide for 24 h, and the promoter activity was measured by a dual-luciferase reporter assay system (BPS Bioscience). The firefly and Renilla luciferase activities were measured using a microplate luminometer (Thermo, Varioskan LUX Multimode Microplate Reader). […]” for “group.”

## CCNC(=O)[C@@H]1CCCN1C(=O)[C@H](CCCNC(=N)N)NC(=O)[C@H](CC(C)C)NC(=O)[C@@H](CC(C)C)NC(=O)[C@H](Cc1ccc(O)cc1)NC(=O)[C@H](CO)NC(=O)[C@H](Cc1c[nH]c2ccccc12)NC(=O)[C@H](Cc1c[nH]cn1)NC(=O)[C@@H]1CCC(=O)N1 [LA, Leuprolide acetate, reference compound]
[1]
  expression of c-Myc in tumor tissue: significantly downregulated
  expression of p-AKT in tumor tissue: significantly downregulated
  expression of p-ERK1/2 in tumor tissue: significantly downregulated
HEK293-GnRHR cells [2]
  calcium flux: more potent effect of calcium flux in HEK293-GnRHR cells than in HEK293-Vector cells
HEK293-GnRHR cells [3]
  CRE-derived reporter gene activity: induced CRE-derived reporter gene activity
HEK293-Vector cells
  CRE-luciferase activity: no significant change

Reference: patent US20240247031A1, “COMPOSITION FOR TREATING CANCER CONTAINING TELOMERASE-TARGETING GNRH ANTAGONIST-DERIVED PEPTIDE HS1002” (Research & Business Foundation Sungkyunkwan University, priority 2023, published 2024)
